Measured values reported in patent publication US20250059164A1, “IRAK DEGRADERS AND USES THEREOF” (Kymera Therapeutics, Inc., priority 2023, published 2025).

Columns and labels:
[1] = Rodent pharmacokinetics (rat PK); format: in vivo; conditions: po, dosed intravenously or orally by gavage, plasma, read-out: F % (bioavailability)
Procedure, shortened: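 Rats were dosed IV or by oral gavage, with jugular blood taken predose and at 5 min (IV only), 15, 30 min and 1, 2, 4, 8, 24 h. Plasma was separated by centrifugation at 4 °C. Oral bioavailability (F %) is coded A (≥5%) or B (≤5%).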

[2] = target: T1, IRAK4 (Homo sapiens, UniProt Q9NWZ3); assay: IRAK4 MSD degradation in OCI-LY10; format: cell-based; conditions: OCI-LY10 cells, 24 hrs, Meso Scale Discovery
T1 construct: endogenous in cells; host or cells: OCI-LY10
T1 sequence (Q9NWZ3 1-460): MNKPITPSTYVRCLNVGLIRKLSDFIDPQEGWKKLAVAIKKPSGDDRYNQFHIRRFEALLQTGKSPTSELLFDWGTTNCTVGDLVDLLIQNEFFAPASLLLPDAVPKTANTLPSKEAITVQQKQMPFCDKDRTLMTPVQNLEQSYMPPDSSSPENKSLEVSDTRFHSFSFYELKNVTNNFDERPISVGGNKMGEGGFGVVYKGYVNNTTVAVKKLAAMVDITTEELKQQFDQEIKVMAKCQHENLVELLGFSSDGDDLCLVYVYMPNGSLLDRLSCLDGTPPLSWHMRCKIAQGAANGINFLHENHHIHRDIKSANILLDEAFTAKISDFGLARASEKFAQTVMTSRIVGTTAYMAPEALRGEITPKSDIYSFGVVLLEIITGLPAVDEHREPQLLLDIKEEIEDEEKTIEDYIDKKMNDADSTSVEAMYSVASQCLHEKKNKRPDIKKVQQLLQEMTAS
Procedure, shortened: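 OCI-LY10 cells treated 4 to 24 hours at 37° C. with 8-dose 1:3 series, top 1 to 10 μM. IRAK4 in lysates quantified by MSD sandwich immunoassay (mouse capture, rabbit detection, SULFO-TAG anti-rabbit). DC50 from three-parameter logistic fit.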

Row | SMILES | bioavailability [1] [%] | DC50 [2] [µM]
1 | Cn1c(=O)n(C2CCC(=O)NC2=O)c2cccc(CCCOC[C@H]3CC[C@H](n4cc(NC(=O)c5cnn6ccc(N7C[C@H]8C[C@@H]7CO8)nc56)c(C(F)F)n4)CC3)c21 (stereo partly shown) [I-109] | ≤ 5 | > 0.2
2 | Cn1nc(C2CCC(=O)NC2=O)c2cccc([C@H]3CCN(C[C@H]4CC[C@H](n5cc6cc(NC(=O)c7cncc(C#N)c7)c(C(C)(C)O)cc6n5)CC4)CC3(F)F)c21 (single isomer, unassigned) [I-223] | ≤ 5 | < 0.01
3 | Cn1c(=O)n(C2CCC(=O)NC2=O)c2cccc([C@@H]3CCN(C[C@H]4CC[C@H](n5cc6cc(NC(=O)c7cccc(C(F)(F)F)c7)ncc6n5)CC4)C[C@H]3F)c21 (stereo partly shown) [I-244] | ≤ 5 | < 0.01
4 | COc1cc2nn([C@H]3CC[C@H](CN4CC[C@@H](c5cccc6c5n(C)c(=O)n6C5CCC(=O)NC5=O)[C@H](F)C4)CC3)cc2cc1C(=O)Nc1cccc(C(F)(F)F)n1 (stereo partly shown) [I-200] | ≤ 5 | < 0.01
5 | COc1cc2nn([C@H]3CC[C@H](CN4CC[C@@H](c5cccc6c5n(C)c(=O)n6C5CCC(=O)NC5=O)[C@H](F)C4)CC3)cc2cc1NC(=O)c1cccc(C(F)(F)F)c1 (stereo partly shown) [I-246] | ≤ 5 | < 0.01
6 | Cn1c(=O)n(C2CCC(=O)NC2=O)c2cccc([C@H]3CCN(C[C@H]4CC[C@H](n5cc6cc(NC(=O)c7cncc(C(F)(F)F)n7)ncc6n5)CC4)CC3(F)F)c21 (single isomer, unassigned) [I-205] | ≤ 5 | < 0.01
7 | COc1cc2nn([C@H]3CC[C@H](CN4CC[C@@H](c5cccc6c5n(C)c(=O)n6C5CCC(=O)NC5=O)[C@H](F)C4)CC3)cc2cc1C(=O)Nc1cccc(C(F)(F)F)c1 (stereo partly shown) [I-142] | ≥ 5 | < 0.01
8 | CN(C[C@H]1CC[C@H](n2cc(NC(=O)c3cnn4ccc(N5C[C@H]6C[C@@H]5CO6)nc34)c(C(F)F)n2)CC1)[C@H]1CCN(c2cccc3c2n(C)c(=O)n3C2CCC(=O)NC2=O)C[C@H]1F (single isomer, unassigned) [I-27] | ≤ 5 | < 0.01
9 | Cn1c(=O)n(C2CCC(=O)NC2=O)c2cccc([C@@H]3CCN(C[C@H]4CC[C@H](c5nc6cc(C(C)(C)O)c(NC(=O)c7cncc(C(F)(F)F)n7)cc6s5)CC4)C[C@H]3F)c21 (stereo partly shown) [I-173] | ≤ 5 | < 0.01
10 | Cn1c(=O)n(C2CCC(=O)NC2=O)c2cccc(N3CCC(F)(CN4CCC(c5nc6cc(C(C)(C)O)c(NC(=O)c7cccc(C(F)(F)F)n7)cc6s5)CC4)CC3)c21 (stereo not shown) [I-191] | ≤ 5 | 0.01 to 0.1
11 | Cn1c(=O)n(C2CCC(=O)NC2=O)c2cccc([C@@H]3CCN(C[C@H]4CC[C@H](n5cc6cc(NC(=O)c7cncc(C(F)(F)F)n7)ccc6n5)CC4)C[C@H]3F)c21 (single isomer, unassigned) [I-112] | ≤ 5 | < 0.01
12 | COc1cc2nn([C@H]3CC[C@H](CN4CC[C@@H](c5cccc6c5n(C)c(=O)n6C5CCC(=O)NC5=O)[C@H](F)C4)CC3)cc2cc1NC(=O)c1cccc(C#N)c1 (stereo partly shown) [I-250] | ≤ 5 | < 0.01
13 | Cn1cc(Cl)c(C(=O)Nc2ccc3nn([C@H]4CC[C@H](CN5CC[C@@H](c6cccc7c6n(C)c(=O)n7C6CCC(=O)NC6=O)[C@H](F)C5)CC4)cc3c2)n1 (stereo partly shown) [I-155] | ≤ 5 | > 0.2
14 | Cn1c(=O)n(C2CCC(=O)NC2=O)c2cccc(N3CCC4(CCN(C[C@H]5CC[C@H](n6cc7cc(NC(=O)c8cccc(C(F)(F)F)c8)ncc7n6)CC5)CC4(F)F)CC3)c21 (stereo partly shown) [I-141] | ≤ 5 | 0.01 to 0.1

Second part, the molecule after the results:

Row | bioavailability [1] [%] | DC50 [2] [µM] | SMILES
15 | ≤ 5 | < 0.01 | Cc1cc2nn([C@H]3CC[C@H](CN4CC[C@@H](c5cccc6c5n(C)c(=O)n6C5CCC(=O)NC5=O)[C@H](F)C4)CC3)cc2cc1NC(=O)c1cncc(C(F)(F)F)n1 (stereo partly shown) [I-286]
16 | ≤ 5 | < 0.01 | COc1cn2nc([C@H]3CC[C@H](CN(C)[C@@H]4CCN(c5cccc6c5n(C)c(=O)n6C5CCC(=O)NC5=O)C[C@@H]4F)CC3)cc2cc1NC(=O)c1cncc(C(F)(F)F)n1 (single isomer, unassigned) [I-302]
17 | ≥ 5 | < 0.01 | Cn1c(=O)n(C2CCC(=O)NC2=O)c2cccc(N3CC4(CCN(C[C@H]5CC[C@H](n6cc7cc(NC(=O)c8cncc(C(F)(F)F)n8)c(C(C)(C)O)cc7n6)CC5)CC4(F)F)C3)c21 (stereo partly shown) [I-326]
18 | ≤ 5 | < 0.01 | Cn1c(=O)n(C2CCC(=O)NC2=O)c2ccc(F)c(N3CCC4(CCN(C[C@H]5CC[C@H](n6cc7cc(NC(=O)c8cncc(C#N)c8)c(C(C)(C)O)cc7n6)CC5)CC4(F)F)CC3)c21 (stereo partly shown) [I-393]
19 | ≥ 5 | 0.01 to 0.1 | Cn1c(=O)n(C2CCC(=O)NC2=O)c2ccc(F)c([C@H]3CCN(C[C@H]4CC[C@H](n5cc6cc(NC(=O)c7cncc(C(F)(F)F)n7)ccc6n5)CC4)C[C@@H]3F)c21 (single isomer, unassigned) [I-353]
20 | ≤ 5 | < 0.01 | COc1cc2nc([C@H]3CC[C@H](CN4CC[C@@H](c5cccc6c5n(C)c(=O)n6C5CCC(=O)NC5=O)[C@H](F)C4)CC3)cn2cc1NC(=O)c1cccc(C(F)(F)F)c1 (stereo partly shown) [I-278]
21 | ≤ 5 | < 0.01 | COc1cc2nc([C@H]3CC[C@H](CN(C)[C@@H]4CCN(c5cccc6c5n(C)c(=O)n6C5CCC(=O)NC5=O)C[C@@H]4F)CC3)cn2cc1NC(=O)c1cncc(C(F)(F)F)n1 (single isomer, unassigned) [I-319]
22 | ≤ 5 | < 0.01 | COc1cc2nn([C@H]3CC[C@H](CN4CC[C@H](c5cccc6c(C7CCC(=O)NC7=O)nn(C)c56)[C@@H](F)C4)CC3)cc2cc1NC(=O)c1cncc(C#N)c1 (single isomer, unassigned) [I-264]
23 | ≤ 5 | < 0.01 | Cn1c(=O)n(C2CCC(=O)NC2=O)c2ccc(F)c(N3CC4(CCN(C[C@H]5CC[C@H](n6cc7cc(NC(=O)c8cncc(C#N)c8)c(C(C)(C)O)cc7n6)CC5)CC4(F)F)C3)c21 (stereo partly shown) [I-388]
24 | ≤ 5 | 0.01 to 0.1 | Cn1c(=O)n(C2CCC(=O)NC2=O)c2cccc([C@@H]3CCN(C[C@H]4CC[C@H](c5nc6cc(C(C)(C)O)c(NC(=O)c7cncc(C#N)c7)cc6o5)CC4)C[C@H]3F)c21 (stereo partly shown) [I-405]
25 | ≤ 5 | < 0.01 | Cn1c(=O)n(C2CCC(=O)NC2=O)c2cccc([C@H]3CCN(C[C@H]4CC[C@H](n5cc(NC(=O)c6cnn7ccc(N8C[C@H]9C[C@@H]8CO9)nc67)c(C(F)F)n5)CC4)C[C@@H]3F)c21 (single isomer, unassigned) [I-330]
26 | ≤ 5 | < 0.01 | Cc1cncc(C(=O)Nc2cc3cn([C@H]4CC[C@H](CN5CC[C@@H](c6cccc7c6n(C)c(=O)n7C6CCC(=O)NC6=O)[C@H](F)C5)CC4)nc3cn2)n1 (stereo partly shown) [I-310]
27 | ≥ 5 | < 0.01 | Cn1c(=O)n(C2CCC(=O)NC2=O)c2ccc(F)c([C@@H]3CCN(C[C@H]4CC[C@H](n5cc6cc(NC(=O)c7cncc(C(F)(F)F)n7)ccc6n5)CC4)C[C@H]3F)c21 (single isomer, unassigned) [I-348]
28 | ≥ 5 | 0.01 to 0.1 | Cn1c(=O)n(C2CCC(=O)NC2=O)c2cccc(N3CC4(CCN(C[C@H]5CC[C@H](c6nc7cc(C(C)(C)O)c(NC(=O)c8cncc(C#N)c8)cc7s6)CC5)CC4(F)F)C3)c21 (stereo partly shown) [I-367]
29 | ≤ 5 | < 0.01 | Cn1c(=O)n(C2CCC(=O)NC2=O)c2cccc([C@@H]3CCN(C[C@H]4CC[C@H](n5cc6cc(NC(=O)c7cncc(C(C)(C)C)n7)ccc6n5)CC4)C[C@H]3F)c21 (stereo partly shown) [I-324]
30 | ≤ 5 | > 0.2 | Cn1c(=O)n(C2CCC(=O)NC2=O)c2cccc(N3CCC4(CCN(C[C@H]5CC[C@H](c6nc7cc(C(C)(C)O)c(NC(=O)c8cncc(C#N)c8)cc7o6)CC5)CC4(F)F)CC3)c21 (stereo partly shown) [I-406]
31 | ≤ 5 | < 0.01 | Cn1c(=O)n(C2CCC(=O)NC2=O)c2cccc([C@@H]3CCN(C[C@H]4CC[C@H](n5cc6cc(NC(=O)c7cncc(C(F)(F)F)n7)c(S(C)(=O)=O)cc6n5)CC4)C[C@H]3F)c21 (stereo partly shown) [I-346]
32 | ≥ 5 | 0.01 to 0.1 | Cc1nn(C2CCC(=O)NC2=O)c2cccc([C@@H]3CCN(C[C@H]4CC[C@H](n5cc6cc(NC(=O)c7cncc(C(F)(F)F)n7)ccc6n5)CC4)CC3(F)F)c12 (single isomer, unassigned) [I-371]
33 | ≥ 5 | > 0.2 | Cn1c(=O)n(C2CCC(=O)NC2=O)c2cccc(N3CC4(CCN(C[C@H]5CC[C@H](c6nc7cc(C(C)(C)O)c(NC(=O)c8cncc(C#N)c8)cc7o6)CC5)CC4(F)F)C3)c21 (stereo partly shown) [I-410]
34 | ≤ 5 | < 0.01 | COc1ccc2c(c1N1CC3(CCN(C[C@H]4CC[C@H](c5nc6cc(C(C)(C)O)c(NC(=O)c7cccc(C(F)(F)F)n7)cc6o5)CC4)CC3(F)F)C1)n(C)c(=O)n2C1CCC(=O)NC1=O (stereo partly shown) [I-415]
35 | ≥ 5 | < 0.01 | COc1ccc2c(c1[C@@H]1CCN(C[C@H]3CC[C@H](n4cc5cc(NC(=O)c6cncc(C(F)(F)F)n6)ccc5n4)CC3)CC1(F)F)n(C)c(=O)n2C1CCC(=O)NC1=O (single isomer, unassigned) [I-391]
